We go through three compounds from publication PMC5934670 (Nucleic Acids Research, 2018).

The target in one test is T1, KdpE (Escherichia coli, UniProt P21866).
T1 sequence (P21866 1-225): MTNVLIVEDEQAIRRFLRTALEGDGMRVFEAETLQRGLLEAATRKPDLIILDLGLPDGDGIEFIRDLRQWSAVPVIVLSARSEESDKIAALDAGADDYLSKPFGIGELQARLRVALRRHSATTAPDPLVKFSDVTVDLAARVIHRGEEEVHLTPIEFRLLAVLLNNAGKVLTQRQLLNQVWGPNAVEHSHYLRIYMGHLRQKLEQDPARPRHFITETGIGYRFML
Nature of the test: Genomic SELEX-chip, rise of specific DNA binding. To be noted: phosphodonor, no KdpD; phosphorylation itself not measured; covalent.

In the next test the target is T2, TorR (Escherichia coli, UniProt P38684).
T2 sequence (P38684 1-230): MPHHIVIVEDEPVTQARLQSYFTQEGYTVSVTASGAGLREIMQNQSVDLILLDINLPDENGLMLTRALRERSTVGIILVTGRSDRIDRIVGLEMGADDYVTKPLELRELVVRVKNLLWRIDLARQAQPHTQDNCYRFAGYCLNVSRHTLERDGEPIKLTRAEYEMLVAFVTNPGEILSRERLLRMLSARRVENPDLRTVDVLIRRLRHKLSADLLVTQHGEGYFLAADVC
Nature of the test: Genomic SELEX-chip, rise of specific DNA binding. To be noted: phosphodonor, no TorS; phosphorylation itself not measured; covalent.

The next test has as its target LacI (Escherichia coli, UniProt P03023). The experiment in a line: Genomic SELEX-chip, loss of DNA binding. To be noted: inducer; increasing IPTG; lac operator DNA.
The target of a further test is T3, NanR (Escherichia coli, UniProt P0A8W0).
T3 sequence (P0A8W0 1-263): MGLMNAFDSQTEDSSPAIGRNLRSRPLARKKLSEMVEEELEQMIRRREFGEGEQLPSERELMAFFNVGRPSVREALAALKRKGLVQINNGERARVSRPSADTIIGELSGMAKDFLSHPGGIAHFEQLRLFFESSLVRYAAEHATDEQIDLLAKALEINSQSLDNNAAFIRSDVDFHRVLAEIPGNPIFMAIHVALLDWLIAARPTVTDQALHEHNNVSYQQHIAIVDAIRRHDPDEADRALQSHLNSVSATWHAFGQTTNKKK
Nature of the test: Genomic SELEX-chip, change of DNA-binding specificity. To be noted: effector; genomic DNA library.

Chain of LacI (P03023 whole entry): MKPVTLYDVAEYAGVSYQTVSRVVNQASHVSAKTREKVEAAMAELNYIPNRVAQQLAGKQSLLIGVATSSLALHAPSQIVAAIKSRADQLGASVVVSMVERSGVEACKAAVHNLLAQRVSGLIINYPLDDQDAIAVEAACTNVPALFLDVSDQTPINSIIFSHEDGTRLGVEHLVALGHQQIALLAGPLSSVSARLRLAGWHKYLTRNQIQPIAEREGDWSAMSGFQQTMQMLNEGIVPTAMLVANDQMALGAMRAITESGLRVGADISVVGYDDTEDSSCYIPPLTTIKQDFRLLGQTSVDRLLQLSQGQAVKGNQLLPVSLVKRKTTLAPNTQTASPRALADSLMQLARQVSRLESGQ

With `CC(=O)OP(=O)(O)O` [AcP], the “Genomic SELEX-chip, rise of specific DNA binding” value at KdpE is recorded as “The binding affinity to this single target increased in the presence of AcP”; at TorR, “the level of TorR binding to this target was higher in the presence of AcP”. `CC(C)S[C@@H]1O[C@H](CO)[C@H](O)[C@H](O)[C@H]1O` [IPTG]: the “Genomic SELEX-chip, loss of DNA binding” value at LacI is “level of LacI binding at the lacZ promoter region decreased concomitant with the increased addition of IPTG”. `CC(=O)N[C@H]1[C@H]([C@H](O)[C@H](O)CO)OC(O)(C(=O)O)C[C@@H]1O` (stereo partly shown) [Neu5Ac]: at NanR, the “Genomic SELEX-chip, change of DNA-binding specificity” value was “The binding of NanR to these non-specific sites disappeared in the presence of Neu5Ac”.
